Source: the PolyMetriX glass transition set
± gives the standard deviation of the reports.

| glass transition temperature | SMILES |
| --- | --- |
| 415.00 °C | *c1ccc2nc(*)cc(-c3ccccc3)c2c1 (repeat unit) |
| 117.70 °C | *CCCCCCn1c2ccccc2c2cc(/C=C(\C#N)C(=O)OCCCCCCOC(=O)/C(C#N)=C/c3ccc4c(c3)c3ccccc3n4*)ccc21 (repeat unit) |
| 17.00 °C | *CCOCCOC(=O)c1ccccc1-c1ccccc1C(=O)O* (repeat unit) |
| 115.00 °C | *Nc1ccc(CCNC(=O)CCCCC(*)=O)cc1 (repeat unit) |
| 84.00 °C | *CCCCCCCCCNC(=O)C(OC)C(OC)C(=O)N* (repeat unit) |
| 92.50 °C | *CC(*)(C)C(=O)OCC(=O)c1ccccc1 (repeat unit) |
| 245.10 °C | *c1cc(C(=O)NCCCCCCCCCC)cc(N2C(=O)c3ccc(-c4ccc5c(c4)C(=O)N(*)C5=O)cc3C2=O)c1 (repeat unit) |
| 47.00 °C | *CC(*)C(=O)Oc1ccc(C(=O)Oc2ccc(OC(=O)c3ccc(OCCCC)cc3)cc2)cc1 (repeat unit) |
| 160.00 °C | *Oc1ccc(/N=N/c2ccc(Cc3ccc(/N=N/c4ccc(OC(=O)c5ccc(/N=N/c6ccc(C(*)=O)cc6)cc5)cc4)cc3[N+](=O)[O-])c([N+](=O)[O-])c2)cc1 (repeat unit) |
| 251.00 °C | *Oc1ccc(C(=O)Nc2ccccc2-c2ccc(NC(=O)c3ccc(*)cc3)cc2)cc1 (repeat unit) |
| 236.00 °C | *c1ccc(-c2ccc(-c3ccc(-c4ccc(-c5ccc6c(c5)C(=O)N(c5ccc(Oc7ccc(C(C)(C)c8ccc(Oc9ccc(N%10C(=O)c%11ccc(*)cc%11C%10=O)cc9)cc8)cc7)cc5)C6=O)cc4)cc3)cc2)cc1 (repeat unit) |
| 77.00 °C | *Oc1ccc(C(C)(C)c2ccc(OC(=O)c3ccc(OCCCCCCCCCCOc4ccc(C(*)=O)cc4)cc3)cc2)cc1 (repeat unit) |
| 31.00 °C | *Oc1cc(OC(=O)c2ccc(OCC)cc2)c(OC(=O)CCCCCCCCCCCCCCC(*)=O)cc1OC(=O)c1ccc(OCC)cc1 (repeat unit) |
| 209.50 °C | *CC(*)(C)C(=O)OCCc1ccc(/N=N/c2ccc(OC(F)(F)F)cc2)cc1 (repeat unit) |
| 100.00 °C | *CC(*)(C)C(=O)OCCCCCCN(C)c1ccc(/N=N/c2ccc(S(C)(=O)=O)cc2)cc1 (repeat unit) |
| 63.00 °C | *CC(CCCCCCCCCCCCCCCC)C1C(=O)N(CCCCNC(=O)C(F)(F)C(F)(F)C(F)(F)C(F)(F)C(F)(F)C(F)(F)C(F)(F)F)C(=O)C1* (repeat unit) |
| 80.00 °C | *Oc1ccc(/N=C/C=N/c2ccc(OC(=O)NCCCCCCNC(*)=O)cc2)cc1 (repeat unit) |
| 43.00 °C | *CC(*)(CC(=O)OCCCl)C(=O)OCCCl (repeat unit) |
| 153.00 °C | *Oc1ccc(C(C)(C)c2ccc(Oc3ccc(C(=O)c4cccc(C(=O)c5ccc(*)cc5)c4)cc3)cc2)cc1 (repeat unit) |
| -19.10 °C | *CCC[Si](*)(C)O[Si](C)(C)CCCOc1ccc(C(=O)Oc2ccc(C#N)cc2)cc1 (repeat unit) |
| 42.60 °C | *CC(*)(C)C(=O)OCc1cccc(Cl)c1Cl (repeat unit) |
| 64.00 °C | *CCCCCCCCCCc1nc2ccc(-c3ccc4nc(*)oc4c3)cc2o1 (repeat unit) |
| 8.00 °C | *CCNC(=O)Nc1ccc(Cc2ccc(NC(=O)NCCOCCO*)cc2)cc1 (repeat unit) |
| -33.00 °C | *CC(CO*)(CSCCCCC)CSCCCCC (repeat unit) |
| 248.00 °C | */C=C/C1CC(*)C2C(=O)N(c3ccccc3C)C(=O)C12 (repeat unit) |
| 273.00 °C | *c1ccc([Si](c2ccccc2)(c2ccccc2)c2ccc(-c3nnc(-c4ccc(-c5nnc(*)o5)c5ccccc45)o3)cc2)cc1 (repeat unit) |
| 274.00 °C | *c1ccc(Oc2ccc(S(=O)(=O)c3ccc(Oc4ccc(N5C(=O)c6ccc(S(=O)(=O)c7ccc8c(c7)C(=O)N(*)C8=O)cc6C5=O)cc4)cc3)cc2)cc1 (repeat unit) |

| glass transition temperature | SMILES |
| --- | --- |
| 241.00 °C | *C(=O)c1ccc(Oc2ccc(S(=O)(=O)c3ccc(Oc4ccc(C(=O)c5ccc6c(c5)C(=O)N(c5ccc(Oc7ccc(N8C(=O)c9ccc(*)cc9C8=O)cc7)cc5)C6=O)cc4)cc3)cc2)cc1 (repeat unit) |
| 287.00 °C | *Nc1ccc(Cc2ccc(NC(=O)c3cc(C(*)=O)cc(N4C(=O)C=CC4=O)c3)cc2)cc1 (repeat unit) |
| 247.00 °C | *Oc1ccc(C(=O)CNc2ccc(S(=O)(=O)c3ccc(NCC(=O)c4ccc(*)cc4)cc3)cc2)cc1 (repeat unit) |
| 163.00 °C | *CCOCCOCCOCCOc1ccc(C(=O)Nc2cc(NC(=O)c3ccc(O*)cc3)cc(-c3nc4ccccc4[nH]3)c2)cc1 (repeat unit) |
| 255.00 °C | *c1ccc(-c2nc3cc(C(=O)c4ccc5nc(-c6ccccc6)c(-c6ccc(N7C(=O)C8OC9C(=O)N(*)C(=O)C9C8C7=O)cc6)nc5c4)ccc3nc2-c2ccccc2)cc1 (repeat unit) |
| 53.00 °C | *CC(*)(F)C(=O)OCCC(F)(F)C(F)(F)C(F)(F)C(F)(F)C(F)(F)C(F)(F)F (repeat unit) |
| 218.00 °C | *Oc1ccc(Oc2ccc(C(=O)Nc3ccc(Cc4ccc(NC(=O)c5ccc(*)cc5)cc4)cc3)cc2)cc1-c1ccccc1 (repeat unit) |
| 47.00 °C | *CCCCCCCCCCCCCCCCOC(=O)NCc1ccc(CNC(=O)O*)cc1 (repeat unit) |
| 350.00 °C | *c1ccc(Oc2ccc(N3C(=O)CC4C(CC5C(=O)N(*)C(=O)C54)C3=O)cc2)cc1 (repeat unit) |
| 207.00 °C | *Oc1ccc(S(=O)(=O)c2ccc(Oc3ccc(C(C)(c4ccccc4)c4ccc(*)cc4)cc3)cc2)cc1 (repeat unit) |
| 275.00 °C | *CCCc1nc2cc(-c3ccc4[nH]c(*)nc4c3)ccc2[nH]1 (repeat unit) |
| -13.00 °C | *CCCCCCOC(=O)OCCCCCCCCCCOC(=O)OCCCCCCOc1ccc(C(=O)c2ccc(O*)cc2)cc1 (repeat unit) |
| 46.00 °C | *Oc1cccc(C(F)(F)C(F)(F)C(F)(F)c2cccc(OC(*)=O)c2)c1 (repeat unit) |
| 67.00 °C | *c1nc(C)nc(N(CCCCCCN(*)c2ccccc2)c2ccccc2)n1 (repeat unit) |
| 63.00 °C | *C(=O)OCCOCCOCCOC(=O)c1ccc(N2C(=O)c3ccc(*)cc3C2=O)cc1 (repeat unit) |
| 284.00 °C | *C(=O)Nc1ccc(Sc2ccc(NC(=O)c3ccc4c(c3)C(=O)N(c3ccc(Oc5ccc(N6C(=O)c7ccc(*)cc7C6=O)cc5)cc3)C4=O)cc2)cc1 (repeat unit) |
| 275.00 °C | *Nc1ccccc1-c1ccc(NC(=O)c2ccc(C(*)=O)cc2)cc1 (repeat unit) |
| 238.00 °C | *c1cccc(N2C(=O)c3cccc(Oc4ccc(Oc5ccc(Oc6cccc7c6C(=O)N(*)C7=O)cc5)cc4)c3C2=O)c1 (repeat unit) |
| 59.50 °C | *CC(*)OC(=O)c1ccccc1OC(C)=O (repeat unit) |
| 243.00 °C | *c1c(C)cc(Cc2cc(C)c(N3C(=O)c4cccc(Oc5c(C)cc(Cc6cc(C)c(Oc7cccc8c7C(=O)N(*)C8=O)c(C)c6)cc5C)c4C3=O)c(C)c2)cc1C (repeat unit) |
| 154.00 °C | *Oc1ccc(C(C)(C)c2ccc(OC(=O)Sc3ccc(C(C)(C)c4ccc(SC(*)=O)cc4)cc3)cc2)cc1 (repeat unit) |
| 85.00 °C | *c1nc(C)nc(N(CCCCN(*)c2ccccc2)c2ccccc2)n1 (repeat unit) |
| 137.00 °C | *CCN(CCOC(=O)NCC1(C)CC(NC(=O)O*)CC(C)(C)C1)c1ccc(/N=N/c2ccc([N+](=O)[O-])cc2)cc1 (repeat unit) |
| 181.00 °C | *Oc1ccc(C2(c3ccc(OC(=O)c4ccc(Oc5ccc(C6(c7ccc(Oc8ccc(C(*)=O)cc8)cc7)CCC(C(C)(C)C)CC6)cc5)cc4)cc3)CCCCCCCCCCC2)cc1 (repeat unit) |
| 27.50 °C | *OC(=O)OCCCCCCOC(=O)OC1COC2C(*)COC12 (repeat unit) |
| 285.00 °C | *c1ccc(OC(=O)c2cccc(C(=O)Oc3ccc(C4(*)c5ccccc5C(=O)N4C)cc3)c2)cc1 (repeat unit) |

| SMILES | glass transition temperature |
| --- | --- |
| *CCCCCCNC(=O)CCP(=O)(CCC(=O)N*)c1ccccc1 (repeat unit) | 29.00 °C |
| *c1ccc2c(c1)C(*)(C)CC2(C)C (repeat unit) | 215.50 °C |
| *CC(*)(F)C(=O)OCCC (repeat unit) | 62.00 °C |
| *CC(*)C(=O)NC (repeat unit) | 171.00 °C |
| *O[Si](*)(C)CCCC(=O)OCCCC (repeat unit) | -91.00 °C |
| *C(=O)c1ccc(N(*)CCCC)cc1 (repeat unit) | 124.00 °C |
| *CC(*)c1ccc(C(=O)OC)cc1 (repeat unit) [Poly(p-methoxycarbonyl styrene) ] | 113 ± 5.6 °C |
| *CCC1CC(=O)N(*)C1=O (repeat unit) | 131.00 °C |
| *Oc1c(Br)cc(*)cc1Br (repeat unit) | 196.00 °C |
| *OP(=O)(Oc1ccc(OC)cc1)Oc1c(Br)cc(C(c2cc(Br)c(*)c(Br)c2)(C(F)(F)F)C(F)(F)F)cc1Br (repeat unit) | 151.00 °C |
| *CCCCCCNC(=O)CCP(=S)(CCC(=O)N*)c1ccccc1 (repeat unit) | 43.00 °C |
| *CCOCCOP(=O)(/N=N/c1ccc(-c2ccc(/N=N/P(=O)(O*)OC)cc2)cc1)OC (repeat unit) | 22.00 °C |
| *c1ccc(OCCN(CCOc2ccc(-c3nc4ccc(Oc5ccc6nc(*)c(-c7ccccc7)nc6c5)cc4nc3-c3ccccc3)cc2)c2ccc(/N=N/c3ccc([N+](=O)[O-])cc3C)cc2)cc1 (repeat unit) | 188.00 °C |
| *C1CCC(*)C1 (repeat unit) | 65.10 °C |
| *CC(O*)c1ccccc1 (repeat unit) | 34.00 °C |
| *CC(CO)(CO)CO* (repeat unit) | 99.00 °C |
